Results reported in patent US20180147206A1, “ACTIVATION OF NEURONAL STORE-OPERATED CALCIUM ENTRY PATHWAY FOR THE TREATMENT OF ALZHEIMER'S DISEASE” (The Board of Regents of the University of Texas System, priority 2015, published 2018).

Experiments:
spine nSOC channels = assay: GCamp5.3 Ca2+ imaging of synaptic nSOC in cultured hippocampal neurons; format: cell-based, mouse
TRPC6 = biological target: T1, TRPC6 (Homo sapiens, UniProt Q9Y210); assay: Fura-2 Ca2+ imaging in TRPC6-transfected HEK293 cells; format: cell-based; details: for Ca2+ influx response: TRPC6-transfected cells, 100 μM; for Ca2+ influx: 1 μM
T1 construct: expressed in transfected cells; host or cells: HEK293
T1 sequence (Q9Y210 1-931): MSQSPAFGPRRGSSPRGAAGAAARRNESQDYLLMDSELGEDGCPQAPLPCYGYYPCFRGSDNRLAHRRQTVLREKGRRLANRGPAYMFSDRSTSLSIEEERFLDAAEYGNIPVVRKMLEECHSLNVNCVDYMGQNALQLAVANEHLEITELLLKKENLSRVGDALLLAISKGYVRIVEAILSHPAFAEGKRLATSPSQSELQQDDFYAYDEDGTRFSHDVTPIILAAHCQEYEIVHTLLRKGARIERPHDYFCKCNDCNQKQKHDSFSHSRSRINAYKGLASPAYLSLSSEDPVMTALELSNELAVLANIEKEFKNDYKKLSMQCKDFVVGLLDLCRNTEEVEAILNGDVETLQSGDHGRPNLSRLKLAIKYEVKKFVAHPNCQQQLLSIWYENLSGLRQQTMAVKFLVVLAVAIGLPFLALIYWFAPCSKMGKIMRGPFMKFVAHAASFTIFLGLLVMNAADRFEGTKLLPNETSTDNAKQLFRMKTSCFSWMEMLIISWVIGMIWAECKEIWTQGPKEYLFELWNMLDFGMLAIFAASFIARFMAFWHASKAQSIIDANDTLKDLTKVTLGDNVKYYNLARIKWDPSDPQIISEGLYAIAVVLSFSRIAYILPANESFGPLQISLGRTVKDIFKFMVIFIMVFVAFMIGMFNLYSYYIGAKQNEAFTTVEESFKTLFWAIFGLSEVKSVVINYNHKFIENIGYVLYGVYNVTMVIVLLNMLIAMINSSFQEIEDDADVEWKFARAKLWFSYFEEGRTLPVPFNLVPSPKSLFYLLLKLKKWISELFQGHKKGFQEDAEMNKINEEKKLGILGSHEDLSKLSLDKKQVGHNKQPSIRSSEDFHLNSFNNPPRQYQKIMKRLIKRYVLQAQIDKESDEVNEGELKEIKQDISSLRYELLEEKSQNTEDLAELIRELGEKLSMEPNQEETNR

[1] = test system: mushroom spines of hippocampal neurons; assay: Dendritic spine analysis in primary hippocampal neural cultures; format: cell-based, mouse; details: for mushroom spine loss: 30 nM for 16 hours
Protocol: FIGS. 4A-E. NSN21778 and Hyperforin rescue synaptic nSOC and mushroom spine loss in AD hippocampal neurons. (FIG. 4A) Chemical structure of NSN21778 and Hyperforin. (FIG. 4B) Time-course of GCaMP5.3 fluorescence signal changes in the spines of wild-type, PS1KI and APPKI hippocampal neurons. The time of extracellular Ca^2+ re-addition is indicated by a black bar above the traces. 100 μM DHPG was added 50 sec prior to Ca^2+ re-addition. The results are shown for control (CON) neurons and for neurons pretreated with 300 nM NSN21778 (+NSN) or 300 nM Hyperforin (+Hyp) for 30 min as indicated. For each experimental group individual spine (grey) and average (red) fluorescence traces are shown. (FIG. 4C) The average nSOC spine peak amplitude is shown for each group of cells shown on panel B. The mean AF/Fo signals for each group and presented as mean±SE (n≥45 spines). ***, p <0.001. (FIG. 4D) Confocal images of wild-type, PS1KI and APPKI hippocampal neurons transfected with TD-Tomato and fixed at DIV15-16. The images are shown for control neurons (CON) and for neurons treated with 30 nM NSN21778 (+NSN) or 30 nM Hyperforin (+Hyp) for 16 hours prior to fixation. Scale bar is 10 μm. (FIG. 4E) The average fraction of mushroom spines for each group of cells shown on FIG. 4D is presented as mean±SE (n≥18 neurons). ***, p <0.001.
FIGS. 5A-E. TRPC6 is a molecular target for NSN21778 and Hyperforin. (FIGS. 5A-B) Time course of Fura-2 Ca^2+ signals is shown for HEK293 cells transfected with EGFP plasmid (GFP) or combination of EGFP and TRPC6 plasmids (TRPC6). Cells were incubated in ACSF media containing 2 mM Ca^2+. In experiments shown in FIG. 5B, cells were moved to modified ACSF media containing 0.1 mM Ca^2+ for 2 min and then returned to the media containing 2 mM Ca^2+ with addition of 100 μM OAG. The time of addition of 1 μM Hyperforin (Hyp) or NSN21778 (NSN) is indicated by red bars above the Fura-2 traces. For each experimental group individual spine (grey) and average (red) fluorescence traces are shown. (FIG. 5C) The average Ca^2+ influx peak is shown for experiments presented on FIGS. 5A-B as mean±SE (n≥81). (FIG. 5D) Confocal images of wild-type and PS1KI hippocampal neurons transfected with TD-Tomato and fixed at DIV15-16. The neurons were infected with lentiviruses encoding control RNAi (siCtrl), RNAi against TRPC6 (siT6) or RNAi against Orai2 (siO2). The images are shown for no drug treated neurons (CON) and for neurons treated with 30 nM NSN21778 (+NSN) or 30 nM Hyperforin (+Hyp) for 16 hours prior to fixation. Scale bar is 10 μm. No drug treated group of wild-type and PS1KI neurons is from the same experiment as shown on FIG. 2A-J. (FIG. 5E) The average fraction of mushroom spines for each group of cells shown on panel A is presented as mean±SE (n≥19 neurons). ***, p <0.001.
Dendritic Spine Analysis in Primary Hippocampal Neural Cultures. The hippocampal cultures of PS1KI, APPKI and WT mice were established from postnatal day 0-1 pups and maintained in culture as the inventors described previously [Zhang, 2010 #5733]. For assessment of synapse morphology, hippocampal cultures were transfected with TD-Tomato plasmid at DIV7 using the calcium phosphate method and fixed (4% formaldehyde, 4% sucrose in PBS, pH 7.4) at DIV15-16. A Z-stack of optical section was captured using 100× objective with a confocal microscope (Carl Zeiss Axiovert 100M with LSM510). 18-20 cultured neurons from three batches of cultures were used for quantitative analysis per genotype. Quantitative analysis for dendritic spines was performed by using NeuronStudio software package [Rodriguez, 2008 #6276]. To classify the shape of neuronal spines in culture, the inventors adapted an algorithm from published method [Rodriguez, 2008 #6276]. In classification of spine shapes the inventors used the following cutoff values: aspect ratio for thin spines (AR_thin(crio))=2.5, head to neck ratio (HNR(crit))=1.4, and head diameter (HD(crit))=0.5 μm. […]

[2] = test system: AβPPSwe/PSEN1ΔE9 (AβPP/PS1) transgenic mice; details: previous studies; cited from earlier work
TRPC3/6/7 channels = details: recent study (Montecinos-Oliva et al., 2014); cited from earlier work

CCCCCCCC/C=C/CCCCCCCC(=O)OCC(CO)OC(C)=O (stereo not shown) [OAG]
Ca2+ responses in spines (spine nSOC channels; direct application to hippocampal neuronal cultures (data not shown)): induced Ca^2+ responses in just a few spines | Ca2+ influx response (TRPC6; standard recording conditions (data not shown)): highly variable responses | Ca2+ influx response (TRPC6; stores partially depleted by 0.1 mM Ca2+ preincubation): more consistent responses

CC(C)=CCC[C@]1(C)[C@@H](CC=C(C)C)C[C@@]2(CC=C(C)C)C(=O)[C@]1(C(=O)C(C)C)C(=O)C(CC=C(C)C)=C2O [Hyperforin]
spine nSOC (spine nSOC channels; PS1KI and APPKI hippocampal neurons, 300 nM applied prior to Ca2+ re-addition): rescued spine nSOC | spine nSOC (spine nSOC channels; wild-type spines, 300 nM): no significant effect | mushroom spines ([1]; PS1KI and APPKI neurons, 30 nM for 16 hr): complete rescue | mushroom spine loss ([1]; PS1KI cultures infected with control RNAi lentiviruses): rescued mushroom spine loss | mushroom spine loss ([1]; PS1KI hippocampal neurons following knockdown of TRPC6 or Orai2): failed to rescue mushroom spine loss | mushroom spine loss ([1]; wild-type neurons with knockdown of TRPC6 or Orai2): failed to rescue | fraction of mushroom spines ([1]; wild-type neurons, 30 nM for 16 hr): no significant effect | beta-amyloid neurotoxicity and spatial memory impairments [2]: able to prevent | toxicity, acute (hippocampal neurons): very large Ca^2 elevations and toxicity | toxicity, overnight (hippocampal neurons): neuronal toxicity in some batches | Ca2+ influx (TRPC6; TRPC6-transfected HEK293 cells, 2 mM Ca2+): activated Ca^2+ influx | Ca2+ influx (TRPC6; control HEK293 cells transfected with EGFP plasmid): not in control cells

tetrahydrohyperforin [IDN5706]
Aβ-induced synaptic plasticity defects (TRPC3/6/7 channels): rescued
